Counter-ions that a name gives are not always drawn.
How the values were obtained:
[1] = target: T1, HCV polymerase (NS5B) type 1b (Hepatitis C virus genotype 1b, UniProt P26663); experiment: Assay of enzyme (HCV polymerase) inhibitory activity, type 1b enzyme; type: biochemical, HCV BK strain (type 1b)
T1 construct: a region encoding NS5B (J Virol 1991 March, 65(3), 1105-13, 544 amino acids after deletion of 47 amino acids on the C-terminal); 6xHis (C); made in house; host or cells: Escherichia coli
Summary of the method: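 Polymerase activity was followed as radiolabelled UTP incorporation by E. coli-expressed, His-tagged NS5B of HCV type 1b lacking its last 47 residues. Conditions: 2 μM UTP, 50 μM other NTPs, Mg2+ buffer at pH 7.5, 25 °C for 60 min. Inhibition relative to compound-free reactions gave IC50.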

[2] = target: T2, HCV polymerase (NS5B) type 1a (Hepatitis C virus genotype 1a, UniProt P26664); experiment: Assay of enzyme (HCV polymerase) inhibitory activity, type 1a enzyme; type: biochemical, HCV type 1a (cloned from the blood of patients)
T2 construct: made in house; host or cells: Escherichia coli (by the 'similar method' of the 1b enzyme)
Summary of the method: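 IC50 values derive from radioactivity of newly synthesized RNA with versus without test compound. The enzyme was C-terminally truncated type 1a NS5B, 1.5 μg/ml, run 60 min at 25° C with 3H-UTP-labelled nucleotides.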

[3] = HCV polymerase inhibitory activity (IC50), 1b, type 1b enzyme 0.5 μg/ml, 25° C., 60 min
[4] = HCV polymerase inhibitory activity (IC50), 1a, type 1a enzyme 1.5 μg/ml, 25° C., 60 min
[5] = HCV polymerase inhibitory activity IC50, 1b, type 1b enzyme
[6] = HCV polymerase inhibitory activity IC50, 1a, type 1a enzyme

SMILES	IC50 [1, 3] [nM]	IC50 [2, 4] [nM]	IC50 [1, 5] [nM]	IC50 [2, 6] [nM]
CC(=O)N1CCN(S(=O)(=O)c2ccc(C(C)C)cc2)C(C(=O)NCc2ccc(C(C)C)cc2)C1 (stereo not shown) [Example 117, 4-acetyl-1-(4-isopropyl-benzenesulfonyl)-piperazine-2-carboxylic acid 4-isopropyl-benzylamide]	100 to 1000	100 to 1000	–	–
CCCc1ccc(CNC(=O)[C@H]2CN(C(=O)Cc3ccncc3)CCN2S(=O)(=O)c2ccc(OC(F)(F)F)cc2)cc1 [Example 411, (R)-4-(2-pyridin-4-yl-acetyl)-1-(4-trifluoromethoxy-benzenesulfonyl)-piperazine-2-carboxylic acid 4-propyl-benzylamide]	< 100	< 100	–	–
CCC(F)(F)c1ccc(CNC(=O)[C@H]2CN(C(=O)Nc3nnc(C(F)(F)F)s3)CCN2S(=O)(=O)c2ccc(OC(F)(F)F)cc2)cc1 [Example 489, (R)-4-(4-trifluoromethoxy-benzenesulfonyl)-piperazine-1,3-dicarboxylic acid 3-[4-(1,1-difluoro-propyl)-benzylamide] 1-[(5-trifluoromethyl-[1,3,4]thiadiazol-2-yl)-amide]]	> 1000	> 1000	–	–
CCC(F)(F)c1ccc(CNC(=O)[C@H]2CN(c3cnc4cncnc4n3)CCN2S(=O)(=O)c2ccc(Br)s2)cc1 [Example 737, (R)-1-(5-bromo-thiophene-2-sulfonyl)-4-pteridin-7-yl-piperazine-2-carboxylic acid 4-(1,1-difluoro-propyl)-benzylamide]	–	–	< 100	< 100
CCCc1ccc(CNC(=O)[C@H]2CN(c3cnc4c(C(=O)O)cccc4n3)CCN2S(=O)(=O)c2ccc(OC(F)(F)F)cc2)cc1 [Example 817, 2-[(R)-3-(4-propyl-benzylcarbamoyl)-4-(4-trifluoromethoxy-benzenesulfonyl)-piperazin-1-yl]-quinoxaline-5-carboxylic acid]	–	–	< 100	< 100
CC(=O)N1CCN(S(=O)(=O)c2ccc(C(C)C)cc2)C(C(=O)NCc2ccc(Oc3ccccc3)cc2)C1 (stereo not shown) [Example 126, 4-acetyl-1-(4-isopropyl-benzenesulfonyl)-piperazine-2-carboxylic acid 4-phenoxy-benzylamide]	> 1000	> 1000	–	–
CCC(F)(F)c1ccc(CNC(=O)[C@H]2CN(c3nc4nc(Cl)ncc4s3)CCN2S(=O)(=O)c2ccc(OC(F)(F)F)cc2)cc1 [Example 895, (R)-4-(5-chloro-thiazolo[4,5-d]pyrimidin-2-yl)-1-(4-trifluoromethoxy-benzenesulfonyl)-piperazine-2-carboxylic acid 4-(1,1-difluoro-propyl)-benzylamide]	–	–	< 100	< 100
O=C(NCc1ccc(OC(F)(F)F)cc1)[C@H]1CN(c2nc3cncnc3s2)CCN1S(=O)(=O)c1ccc(OC(F)(F)F)cc1 [Example 885, (R)-4-thiazolo[5,4-d]pyrimidin-2-yl-1-(4-trifluoromethoxy-benzenesulfonyl)-piperazine-2-carboxylic acid 4-trifluoromethoxy-benzylamide]	–	–	< 100	< 100
CCCc1ccc(CNC(=O)[C@H]2CN(C(C)=O)CCN2S(=O)(=O)c2ccc(OC(F)(F)F)cc2)c(=O)[nH]1 [Example 646, (R)-4-acetyl-1-(4-trifluoromethoxy-benzenesulfonyl)-piperazine-2-carboxylic acid (2-oxo-6-propyl-1,2-dihydro-pyridin-3-ylmethyl)-amide]	> 1000	> 1000	–	–
COCC(=O)N1CCN(S(=O)(=O)c2ccc(C(F)(F)F)cc2)[C@@H](C(=O)NCc2ccc(C(C)C)cc2)C1 [Example 279, (R)-4-(2-methoxy-acetyl)-1-(4-trifluoromethyl-benzenesulfonyl)-piperazine-2-carboxylic acid 4-isopropyl-benzylamide]	100 to 1000	100 to 1000	–	–
CC(=O)N1CCN(S(=O)(=O)c2ccc(C(C)C)cc2)[C@@H](C(=O)NCCc2cccc(Cl)c2)C1 [Example 150, (R)-4-acetyl-1-(4-isopropyl-benzenesulfonyl)-piperazine-2-carboxylic acid [2-(3-chloro-phenyl)-ethyl]-amide]	> 1000	> 1000	–	–
O=C(O)CCn1ncc2sc(N3CCN(S(=O)(=O)c4ccc(OC(F)(F)F)cc4)[C@@H](C(=O)NCc4ccc(OC(F)(F)F)cc4)C3)nc2c1=O [Example 1112, 3-{4-oxo-2-[(R)-4-(4-trifluoromethoxy-benzenesulfonyl)-3-(4-trifluoromethoxy-benzylcarbamoyl)-piperazin-1-yl]-4H-thiazolo[4,5-d]pyridazin-5-yl}propionic acid]	–	–	< 100	< 100
O=C(NCc1ccc(OC(F)F)cc1F)[C@H]1CN(c2nc3nc(Cl)ncc3s2)CCN1S(=O)(=O)c1ccc(OC(F)(F)F)cc1 [Example 997, (R)-4-(5-chloro-thiazolo[4,5-d]pyrimidin-2-yl)-1-(4-trifluoromethoxy-benzenesulfonyl)-piperazine-2-carboxylic acid 4-difluoromethoxy-2-fluoro-benzylamide]	–	–	< 100	< 100
Cc1nc(N2CCN(S(=O)(=O)c3ccc(OC(F)(F)F)cc3)[C@@H](C(=O)NCc3ccc(C(C)C)cc3)C2)sc1C(=O)N[C@H](C)C(=O)O [Example 369, (R)-2-({2-[(R)-3-(4-isopropyl-benzylcarbamoyl)-4-(4-trifluoromethoxy-benzenesulfonyl)-piperazin-1-yl]-4-methyl-thiazole-5-carbonyl}-amino)-propionic acid]	< 100	< 100	–	–
CCC(F)(F)c1ccc(CNC(=O)[C@H]2CN(c3ccnc(N)n3)CCN2S(=O)(=O)c2ccc(OC(F)(F)F)cc2)cc1 [Example 584, (R)-4-(2-amino-pyrimidin-4-yl)-1-(4-trifluoromethoxy-benzenesulfonyl)-piperazine-2-carboxylic acid 4-(1,1-difluoro-propyl)-benzylamide]	< 100	< 100	–	–
CC(=O)N1CCN(S(=O)(=O)c2ccc(OC(F)(F)F)cc2)[C@@H](C(=O)NCc2ccc(C(F)(F)C(F)(F)F)cc2)C1 [Example 550, (R)-4-acetyl-1-(4-trifluoromethoxy-benzenesulfonyl)-piperazine-2-carboxylic acid 4-pentafluoroethyl-benzylamide]	100 to 1000	100 to 1000	–	–
CC(=O)N1CCN(S(=O)(=O)c2cc3ccccc3s2)C(C(=O)NCc2ccc(C(F)(F)F)cc2)C1 (stereo not shown) [Example 74, 4-acetyl-1-(benzo[b]thiophene-2-sulfonyl)-piperazine-2-carboxylic acid 4-trifluoromethyl-benzylamide]	> 1000	> 1000	–	–
CC(=O)N1CCN(S(=O)(=O)c2ccc(C(C)C)cc2)[C@@H](C(=O)NCCc2c[nH]cn2)C1 [Example 433, (R)-4-acetyl-1-(4-isopropyl-benzenesulfonyl)-piperazine-2-carboxylic acid [2-(1H-imidazol-4-yl)-ethyl]-amide hydrochloride]	> 1000	> 1000	–	–
O=C(NCc1ccc(-c2cccs2)cc1)[C@H]1CN(c2cnc3cncnc3n2)CCN1S(=O)(=O)c1ccc(OC(F)(F)F)cc1 [Example 652, (R)-4-pteridin-7-yl-1-(4-trifluoromethoxy-benzenesulfonyl)-piperazine-2-carboxylic acid 4-thiophen-2-yl-benzylamide]	< 100	< 100	–	–
CC(C)c1ccc(CNC(=O)[C@H]2CN(C(=O)Nc3ccccc3Cl)CCN2S(=O)(=O)c2ccc(C(F)(F)F)cc2)cc1 [Example 269, (R)-4-(4-trifluoromethyl-benzenesulfonyl)-piperazine-1,3-dicarboxylic acid 1-[(2-chloro-phenyl)-amide] 3-(4-isopropyl-benzylamide)]	> 1000	> 1000	–	–
CC(C)c1ccc(CNC(=O)[C@H]2CN(C(=O)Nc3ccncn3)CCN2S(=O)(=O)c2ccc(C(F)(F)F)cc2)cc1 [Example 300, (R)-4-(4-trifluoromethyl-benzenesulfonyl)-piperazine-1,3-dicarboxylic acid 3-(4-isopropyl-benzylamide) 1-pyrimidin-4-ylamide]	< 100	< 100	–	–
CC(=O)N1CCN(S(=O)(=O)c2ccc(OC(F)(F)F)cc2)[C@@H](C(=O)NCc2ccc(C(C)C)cc2)C1 [Example 207, (R)-4-acetyl-1-(4-trifluoromethoxy-benzenesulfonyl)-piperazine-2-carboxylic acid 4-isopropyl-benzylamide]	< 100	< 100	–	–
CCC(C)(C)c1ccc(CNC(=O)[C@H]2CN(c3nc4cn[nH]c(=O)c4s3)CCN2S(=O)(=O)c2ccc(OC(F)(F)F)cc2)cc1 [Example 840, (R)-4-(7-oxo-6,7-dihydro-thiazolo[4,5-d]pyridazin-2-yl)-1-(4-trifluoromethoxy-benzenesulfonyl)-piperazine-2-carboxylic acid 4-(1,1-dimethyl-propyl)-benzylamide]	–	–	< 100	< 100
